# According to paper PMC10454678, “Synthesis of hydroxy benzoin/benzil analogs and investigation of their antioxidant, antimicrobial, enzyme inhibition, and cytotoxic activities” (Turkish Journal of Chemistry, 2021):
# Legend:
# [1] = system: Streptococcus mutans RSKK07038; assay: MIC, microdilution, S. mutans; assay type: cell-based; details: Gram (+); BHI broth, 72 h, 36 °C
# tyrosinase = tyrosinase (Agaricus bisporus, UniProt C7FF04); assay: Tyrosinase inhibition (dopachrome method); assay type: biochemical; details: L-DOPA substrate, pH 6.8, 25 °C, 492 nm
# [2] = system: Escherichia coli ATCC 25922; assay: MIC, microdilution, E. coli; assay type: cell-based; details: Gram (-); Mueller-Hinton broth, 18-24 h, 36 °C
# [3] = system: Enterococcus faecalis ATCC29212; assay: MIC, microdilution, E. faecalis; assay type: cell-based; details: Gram (+); Mueller-Hinton broth, 18-24 h, 36 °C
# [4] = system: Staphylococcus aureus ATCC25923; assay: MIC, microdilution, S. aureus; assay type: cell-based; details: Gram (+); Mueller-Hinton broth, 18-24 h, 36 °C
# Bacillus cereus Roma709 = assay: MIC, microdilution, B. cereus; assay type: cell-based; details: Gram (+); Mueller-Hinton broth, 18-24 h, 36 °C
# α-amylase = α-amylase (Sus scrofa, UniProt P00690); assay: α-Amylase inhibition (Caraway-Somogyi I2/KI method); assay type: biochemical; details: starch, pH 6.9, 37 °C, 630 nm
# [5] = system: Candida albicans ATCC60193; assay: MIC, microdilution, C. albicans; assay type: cell-based; details: fungus; YEPD broth, 48 h, 36 °C
# [6] = system: Pseudomonas aeruginosa ATCC27853; assay: MIC, microdilution, P. aeruginosa; assay type: cell-based; details: Gram (-); Mueller-Hinton broth, 18-24 h, 36 °C
# acetylcholinesterase = acetylcholinesterase (Homo sapiens, UniProt P22303); assay: biochemical; details: Tris-HCl pH 8.0, 25 °C, 405 nm
# butyrylcholinesterase = butyrylcholinesterase (Homo sapiens, UniProt P06276); assay: biochemical; details: Tris-HCl pH 8.0, 25 °C, 405 nm
# [7] = Ferric reducing antioxidant power (FRAP) assay; details: Trolox equivalents, compounds 2 mg/mL, 30 °C 30 min, 595 nm
# α-glucosidase = assay: α-Glucosidase inhibition; assay type: biochemical; details: PNPG, pH 6.8, 37 °C, 400 nm
# Experimental: It was incubated at 37 °C for 15 min. Similarly, an enzyme-free blank was prepared. The reaction was stopped when sodium carbonate (50 μL, 0.2 M) was added.
# [8] = DPPH radical scavenging activity; details: 0.1 mM DPPH, 50 min dark, 517 nm
# [9] = system: Mycobacterium smegmatis ATCC607; assay: MIC, microdilution, M. smegmatis; assay type: cell-based; details: Tub.; BHI broth, 72 h, 36 °C
# [10] = Copper ions reducing activity (CUPRAC); details: Trolox equivalents; 30 min dark, room temperature, 450 nm
# [11] = system: Yersinia pseudotuberculosis ATCC911; assay: microbe, parasite or virus in culture; assay type: cell-based; details: Gram (-); Mueller-Hinton broth, 18-24 h, 36 °C
# [12] = system: human cervical cancer cell line (HeLa); assay: MTT cell proliferation, HeLa; details: MTT, 24 h incubation
# [13] = system: human retinal normal cell line (RPE); assay: MTT cell proliferation, RPE; details: MTT, 24 h incubation
# α-amylase, sequence (P00690 16-511): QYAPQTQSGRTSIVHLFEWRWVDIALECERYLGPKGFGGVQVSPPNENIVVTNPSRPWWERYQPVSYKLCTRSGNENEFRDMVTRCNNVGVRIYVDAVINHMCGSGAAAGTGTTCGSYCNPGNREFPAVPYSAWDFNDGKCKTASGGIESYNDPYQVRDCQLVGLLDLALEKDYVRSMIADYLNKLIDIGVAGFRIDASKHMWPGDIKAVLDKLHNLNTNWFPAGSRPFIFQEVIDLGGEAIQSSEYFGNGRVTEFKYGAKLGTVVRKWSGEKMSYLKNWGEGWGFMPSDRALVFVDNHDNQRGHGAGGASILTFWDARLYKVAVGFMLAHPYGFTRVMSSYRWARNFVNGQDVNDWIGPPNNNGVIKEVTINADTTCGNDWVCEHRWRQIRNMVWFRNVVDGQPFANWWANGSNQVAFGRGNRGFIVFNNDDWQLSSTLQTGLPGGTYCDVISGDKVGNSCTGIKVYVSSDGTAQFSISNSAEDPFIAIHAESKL
# tyrosinase, sequence (C7FF04 1-392): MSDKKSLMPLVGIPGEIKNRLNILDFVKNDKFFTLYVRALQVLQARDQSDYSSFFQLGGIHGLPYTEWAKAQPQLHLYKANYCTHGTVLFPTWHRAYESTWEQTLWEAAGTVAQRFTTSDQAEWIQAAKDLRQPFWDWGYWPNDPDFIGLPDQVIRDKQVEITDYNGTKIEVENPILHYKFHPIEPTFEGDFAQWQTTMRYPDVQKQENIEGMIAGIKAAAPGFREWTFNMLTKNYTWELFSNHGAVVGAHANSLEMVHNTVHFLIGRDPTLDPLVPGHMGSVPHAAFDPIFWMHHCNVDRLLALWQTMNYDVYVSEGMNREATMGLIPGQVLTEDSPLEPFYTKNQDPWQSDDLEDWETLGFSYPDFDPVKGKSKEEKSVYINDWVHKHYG
# acetylcholinesterase, sequence (P22303 32-614, species assumed): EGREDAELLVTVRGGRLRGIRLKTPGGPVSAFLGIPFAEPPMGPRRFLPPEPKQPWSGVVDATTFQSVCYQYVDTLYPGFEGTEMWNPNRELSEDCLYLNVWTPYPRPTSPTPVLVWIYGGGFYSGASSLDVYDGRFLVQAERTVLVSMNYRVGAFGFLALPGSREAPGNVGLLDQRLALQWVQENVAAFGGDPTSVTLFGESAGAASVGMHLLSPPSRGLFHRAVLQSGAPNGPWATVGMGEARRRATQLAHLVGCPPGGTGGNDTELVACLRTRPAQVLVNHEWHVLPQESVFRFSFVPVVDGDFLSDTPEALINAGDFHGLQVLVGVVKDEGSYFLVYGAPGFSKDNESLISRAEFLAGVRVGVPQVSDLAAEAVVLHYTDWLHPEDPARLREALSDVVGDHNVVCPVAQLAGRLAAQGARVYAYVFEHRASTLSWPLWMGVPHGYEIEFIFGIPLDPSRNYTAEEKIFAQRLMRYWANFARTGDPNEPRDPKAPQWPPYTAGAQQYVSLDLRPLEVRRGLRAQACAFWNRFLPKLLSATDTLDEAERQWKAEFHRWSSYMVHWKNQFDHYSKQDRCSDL
# butyrylcholinesterase, sequence (P06276 29-602): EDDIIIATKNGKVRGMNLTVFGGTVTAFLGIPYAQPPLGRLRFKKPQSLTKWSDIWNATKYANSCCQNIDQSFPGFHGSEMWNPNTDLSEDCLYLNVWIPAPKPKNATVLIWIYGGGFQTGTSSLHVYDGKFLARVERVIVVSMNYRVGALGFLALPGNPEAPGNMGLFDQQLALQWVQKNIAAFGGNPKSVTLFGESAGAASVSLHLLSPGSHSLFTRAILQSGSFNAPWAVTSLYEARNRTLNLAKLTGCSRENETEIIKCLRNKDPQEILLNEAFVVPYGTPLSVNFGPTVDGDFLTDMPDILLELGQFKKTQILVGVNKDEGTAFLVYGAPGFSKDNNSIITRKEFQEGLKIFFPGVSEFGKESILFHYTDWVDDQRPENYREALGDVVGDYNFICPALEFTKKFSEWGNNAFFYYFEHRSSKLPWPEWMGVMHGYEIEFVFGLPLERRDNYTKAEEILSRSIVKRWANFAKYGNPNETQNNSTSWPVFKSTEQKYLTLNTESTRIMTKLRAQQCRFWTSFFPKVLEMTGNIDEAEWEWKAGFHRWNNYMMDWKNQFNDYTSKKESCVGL
substance,measurement,setting,value
"2-Hydroxy-1-(3,5-dihydroxyphenyl)-2-(3-hydroxyphenyl)ethanone and 2-Hydroxy-1-(3-hydroxyphenyl)-2-(3,5-dihydroxyphenyl)ethanone [6a+b]",MIC Sm,[1],12 µg/mL
same,Tyrosinase IC50,tyrosinase,25.45 µg/mL
same,MIC Ec,[2],103 µg/mL
same,MIC Ef,[3],24 µg/mL
same,MIC Sa,[4],12 µg/mL
same,MIC Bc,Bacillus cereus Roma709,24 µg/mL
same,α-Amylase IC50,α-amylase,230.76 µg/mL
same,MIC Ca,[5],103 µg/mL
same,MIC Pa,[6],52 µg/mL
same,AChE IC50,acetylcholinesterase,>1000 µg/mL
same,BChE IC50,butyrylcholinesterase,592.92 µg/mL
same,"FRAP, the iron reducing antioxidant power",[7],2237 ± 58.3 μg/mL trolox/gram DW
same,"FRAP, the iron reducing antioxidant power",[7]; listed as 6,2237±58.3 μg/mL trolox/gram DW
same,α-Glucosidase IC50,α-glucosidase,76.53 µg/mL
same,DPPH radical scavenging capacity (SC50),[8],9.48 ± 0.3 mg/mL
same,MIC Ms,[9],12 µg/mL
same,"CUPRAC, copper reducing antioxidant power",[10],506.67 ± 17.3 μg/mL trolox/gram DW
same,MIC Yp,[11],103 µg/mL
2-Hydroxy-1-(3-O- β -D-glucopyranosylphenyl)-2-(3-hydroxyphenyl)-ethanone; 2-Hydroxy-1-(3-hydroxyphenyl)-2-(3-O- β -D-glucopyranosylphenyl)ethanone [18a+b],Tyrosinase IC50,tyrosinase,>1000 µg/mL
same,α-Amylase IC50,α-amylase,>1000 µg/mL
same,"FRAP, the iron reducing antioxidant power",[7],2743.75 ± 25.20 μg/mL trolox/gram DW
same,α-Glucosidase IC50,α-glucosidase,>1000 µg/mL
same,GI50 HeLa cell line,[12],2.23 µg/mL
same,IC50 HeLa cell line,[12],104.49 µg/mL
same,GI50 RPE normal cell line,[13],1.90 µg/mL
same,IC50 RPE normal cell line,[13],83.81 µg/mL
same,DPPH radical scavenging capacity (SC50),[8],12.11 ± 0.43 mg/mL
same,"CUPRAC, copper reducing antioxidant power",[10],385.80 ± 37.12 μg/mL trolox/gram DW
